From patent US20260356856A1, “KRAS G12S AND G12C INHIBITORS” (MIRATI THERAPEUTICS, INC., priority 2023, published 2026)

Tests used:
[1] = molecular target: T1, KRas-mediated phosphorylation of ERK in H358 cells (Homo sapiens, UniProt P01116, G12C); assay: Inhibition of KRas-mediated phosphorylation of ERK (HTRF), H358 cells; assay type: cell-based; conditions: HTRF pERK, 3 h incubation
T1 construct: pERK HTRF read-out

[2] = molecular target: T2, KRas-mediated phosphorylation of ERK in MKN1 cells (Homo sapiens, UniProt P01116); assay: Inhibition of KRas-mediated phosphorylation of ERK (HTRF), MKN1 cells; assay type: cell-based; conditions: MKN1 cells (KRas WT); HTRF pERK; 3 h incubation
T2 construct: pERK HTRF read-out
Description: Inhibition of KRas Phosphorylation of ERK (HTRF) by Exemplary Compounds of Formula (Ia) or (Ib)
Cisbio HTRF Advanced pERK Assay Catalog #64AERPEH • Cells: MKN1, PSN1 • Procedure: • 1. Day 1: Seed 6,000 cells/well −25 μl/well in 384-well white solid bottom plate; RPM1_10% FBS. Incubate overnight at 37 °C/5% CO2. • 2.

KRas G12S = molecular target: T3, KRas G12S (Homo sapiens, UniProt P01116, G12S); assay: KRas binding assay, TR-FRET displacement of Cy5 labelled tracer; conditions: 60-minute incubation at room temperature, 1% DMSO, pH 7.5
T3 construct: Biotinylated KRas (corresponding to amino acids 1-169, produced at Accelegan Inc.); biotin (biotinylated); purchased Accelegan Inc
In short: (§1)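 Final conditions: 1% DMSO, pH 7.5 HEPES buffer, 60 min, room temperature. Protein: biotin-KRas 1-169 with terbium streptavidin. Output: IC50, four-parameter fit of POC.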

KRas WT = molecular target: T4, KRas WT (Homo sapiens, UniProt P01116); assay: as above; conditions: 60-minute incubation at room temperature, 1% DMSO, pH 7.5
T4 construct: Biotinylated KRas (corresponding to amino acids 1-169, produced at Accelegan Inc.); biotin (biotinylated); purchased Accelegan Inc
In short: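 Tb-streptavidin captured biotinylated KRas (1-169) in HEPES 50 mM, DTT 1 mM, MgCl2 5 mM, Tween-20 0.005% (pH 7.5), alongside tracer and compound at 1% final DMSO. One hour at RT, then read; IC50 from 4-parameter POC fit.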

KRas G12C = molecular target: T5, KRas G12C (Homo sapiens, UniProt P01116, G12C); assay: as above; conditions: 60-minute incubation at room temperature, 1% DMSO, pH 7.5
T5 construct: Biotinylated KRas (corresponding to amino acids 1-169, produced at Accelegan Inc.); biotin (biotinylated); purchased Accelegan Inc
In short: as §1

[3] = molecular target: T6, KRas-mediated phosphorylation of ERK in A549 cells (Homo sapiens, UniProt P01116, G12S); assay: Inhibition of KRas-mediated phosphorylation of ERK (HTRF), A549 cells; assay type: cell-based; conditions: HTRF pERK, 3 h incubation
T6 construct: pERK HTRF read-out
T6 sequence (P01116 1-188 isoform P01116-2 G12S): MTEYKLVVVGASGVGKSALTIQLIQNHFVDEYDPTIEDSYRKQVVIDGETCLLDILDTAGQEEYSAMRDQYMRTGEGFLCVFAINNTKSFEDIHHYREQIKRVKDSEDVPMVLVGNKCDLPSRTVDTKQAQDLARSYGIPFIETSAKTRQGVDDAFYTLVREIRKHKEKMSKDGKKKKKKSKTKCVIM

T5 sequence (P01116 1-169 isoform P01116-2 G12C): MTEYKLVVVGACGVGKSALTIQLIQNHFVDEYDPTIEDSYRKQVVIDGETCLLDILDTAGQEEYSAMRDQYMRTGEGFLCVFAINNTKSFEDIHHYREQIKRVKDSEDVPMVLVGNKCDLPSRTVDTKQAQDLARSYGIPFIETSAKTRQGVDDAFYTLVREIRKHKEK
T4 sequence (P01116 1-169 isoform P01116-2): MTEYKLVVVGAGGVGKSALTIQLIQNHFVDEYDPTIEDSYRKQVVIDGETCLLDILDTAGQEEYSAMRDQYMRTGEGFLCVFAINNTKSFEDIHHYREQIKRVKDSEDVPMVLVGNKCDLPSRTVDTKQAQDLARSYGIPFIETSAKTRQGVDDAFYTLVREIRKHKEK
T2 sequence (P01116 1-188 isoform P01116-2): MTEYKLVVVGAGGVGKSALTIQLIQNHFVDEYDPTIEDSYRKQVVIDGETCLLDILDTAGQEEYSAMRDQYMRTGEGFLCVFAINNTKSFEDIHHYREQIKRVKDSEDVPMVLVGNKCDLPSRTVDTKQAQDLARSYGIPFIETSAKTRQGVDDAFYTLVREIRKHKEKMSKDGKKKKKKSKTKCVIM
T1 sequence (P01116 1-188 isoform P01116-2 G12C): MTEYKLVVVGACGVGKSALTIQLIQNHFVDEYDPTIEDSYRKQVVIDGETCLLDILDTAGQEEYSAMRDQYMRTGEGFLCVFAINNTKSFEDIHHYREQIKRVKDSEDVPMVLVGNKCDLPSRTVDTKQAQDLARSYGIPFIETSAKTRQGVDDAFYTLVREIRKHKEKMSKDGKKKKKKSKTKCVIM
T3 sequence (P01116 1-169 isoform P01116-2 G12S): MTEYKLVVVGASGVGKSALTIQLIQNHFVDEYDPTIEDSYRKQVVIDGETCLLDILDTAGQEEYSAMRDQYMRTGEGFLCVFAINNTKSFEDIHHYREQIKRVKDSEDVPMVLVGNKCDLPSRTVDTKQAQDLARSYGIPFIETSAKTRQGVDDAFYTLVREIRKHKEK

Row | SMILES | IC50 [1] [nM] | IC50 [2] [nM] | IC50 (KRas G12S) [nM] | IC50 (KRas WT) [nM] | IC50 (KRas G12C) [nM] | IC50 [3] [nM]
1 | CCc1c(F)ccc2cc(O)cc(-c3ncc4c(N5CC6CC(C(=O)N(C)C(C)=O)CC6C5)nc(OC[C@@]56CCCN5C[C@H](F)C6)nc4c3F)c12 (stereo partly drawn) [Example 279, N-acetyl-2-(7-(8-ethyl-7-fluoro-3-hydroxynaphthalen-1-yl)-8-fluoro-2-(((2R,7aS)-2-fluorotetrahydro-1H-pyrrolizin-7a(5H)-yl)methoxy)pyrido[4,3-d]pyrimidin-4-yl)-N-methyloctahydrocyclopenta[c]pyrrole-5-carboxamide] | 4900 | 1690 | 188 | 332 | 334 | 276
2 | CCc1c(F)ccc2cc(O)cc(-c3ncc4c(N5CCC(C(=O)n6ccc(C)n6)CC5)nc(OC[C@@]56CCCN5C/C(=C\F)C6)nc4c3F)c12 [Example 70, (S,Z)-(1-(7-(8-ethyl-7-fluoro-3-hydroxynaphthalen-1-yl)-8-fluoro-2-((2-(fluoromethylene)tetrahydro-1H-pyrrolizin-7a(5H)-yl)methoxy)pyrido[4,3-d]pyrimidin-4-yl)piperidin-4-yl)(3-methyl-1H-pyrazol-1-yl)methanone] | 7290 | 5100 | 17 | 27 | 31 | 85
3 | Cc1ccn(C(=O)C2CCCN(c3nc(OC[C@@]45CCCN4C[C@H](F)C5)nc4c(F)c(-c5c(C#N)c(N)cc(C)c5C(F)(F)F)c(Cl)cc34)CC2)n1 (stereo partly drawn) [Example 248, 6-amino-2-(6-chloro-8-fluoro-2-(((2R,7aS)-2-fluorotetrahydro-1H-pyrrolizin-7a(5H)-yl)methoxy)-4-(4-(3-methyl-1H-pyrazole-1-carbonyl)azepan-1-yl)quinazolin-7-yl)-4-methyl-3-(trifluoromethyl)benzonitrile] | 4220 | 2920 | 57 | 669 | 360 | 100
4 | CC(C)(C)c1ccn(C(=O)C2CCCN(c3nc(OC[C@@]45CCCN4C[C@H](F)C5)nc4c(F)c(-c5ccc(F)c6sc(N)c(C#N)c56)c(Cl)cc34)CC2)n1 (stereo partly drawn) [Example 220, 2-amino-4-(4-(4-(3-(tert-butyl)-1H-pyrazole-1-carbonyl)azepan-1-yl)-6-chloro-8-fluoro-2-(((2R,7aS)-2-fluorotetrahydro-1H-pyrrolizin-7a(5H)-yl)methoxy)quinazolin-7-yl)-7-fluorobenzo[b]thiophene-3-carbonitrile] | 449 | 258 | 153 | 160 | 209 | 336

Molecules with a lower IC50 [1], results first:

Row | IC50 [1] [nM] | IC50 [2] [nM] | IC50 (KRas G12S) [nM] | IC50 (KRas WT) [nM] | IC50 (KRas G12C) [nM] | IC50 [3] [nM] | SMILES
5 | 164 | 437 | 15 | 47 | 52 | 58 | CCc1c(F)ccc2cc(O)cc(-c3ncc4c(N5CCCCC(C(=O)N(C)C(C)=O)CC5)nc(OC[C@@]56CCCN5C[C@H](F)C6)nc4c3F)c12 (stereo partly drawn) [Example 275, N-acetyl-1-(7-(8-ethyl-7-fluoro-3-hydroxynaphthalen-1-yl)-8-fluoro-2-(((2R,7aS)-2-fluorotetrahydro-1H-pyrrolizin-7a(5H)-yl)methoxy)pyrido[4,3-d]pyrimidin-4-yl)-N-methylazocane-4-carboxamide]
6 | 160 | 105 | 35 | 23 | 27 | 4250 | CCc1c(F)ccc2cc(O)cc(N3CCc4c(nc(OC[C@@]56CCCN5C[C@H](F)C6)nc4N4CCCCCC(C(=O)n5ccc(C)n5)C4)C3)c12 (stereo partly drawn) [Example 192, (1-(7-(8-ethyl-7-fluoro-3-hydroxynaphthalen-1-yl)-2-(((2R,7aS)-2-fluorotetrahydro-1H-pyrrolizin-7a(5H)-yl)methoxy)-5,6,7,8-tetrahydropyrido[3,4-d]pyrimidin-4-yl)azocan-3-yl)(3-methyl-1H-pyrazol-1-yl)methanone]
7 | 167 | 24 | 14 | 8 | 13 | 223 | N#Cc1c(N)sc2c(F)ccc(-c3c(Cl)cc4c(N5CCC(C(=O)N6CCCC6)CC5)nc(OC[C@@]56CCCN5C[C@H](F)C6)nc4c3F)c12 [Example 246, 2-amino-4-(6-chloro-8-fluoro-2-(((2R,7aS)-2-fluorotetrahydro-1H-pyrrolizin-7a(5H)-yl)methoxy)-4-(4-(pyrrolidine-1-carbonyl)piperidin-1-yl)quinazolin-7-yl)-7-fluorobenzo [b]thiophene-3-carbonitrile]
